Experimental data taken from patent US5500430A, “Amidic derivatives of glutamic, aspartic and 2-amino adipic acids, a process for preparing same, and anti-gastrin composition containing the derivatives” (Rotta Research Laboratorium S.p.A., priority 1990, dated 1996).

The compounds below were run on gastric acid secretion induced by pentagastrin (assay: Antisecretive activity in anaesthetised rats (pentagastrin-stimulated gastric acid secretion)). Conditions: Rattus norvegicus, iv; anaesthetised male rats, pentagastrin 30 mcg/Kg/h, I.V. bolus; IN with bound; read-out: Antagonistic activity (ID50) towards gastric acid secretion induced by pentagastrin.
Type: in vivo
Description: Antisecretive activity in anaesthetised rats
Antisecretive activity in rats was determined with the use of male animals each weighing about 200 g, anaesthetised with urethane. Gastric secretion was stimulated with pentagastrin. The method of K. S. Lai (Gut 5, (1964), 327-341) was used, slightly modified.
After tracheotomy, cannulae were inserted in the oesophagus and the duodenum. A tepid solution. (37° C.) of 0.25 mM NaOH was perfused and passed through the stomach by means of a peristaltic pump at a constant flow rate of 1 ml/minute. After stabilisation for 20 minutes, the stimulating agent, dissolved in a physiological solution, was perfused for 120 minutes at a dose of 30 mcg/Kg/h in a volume of 0.95 ml/hour. After perfusion for 60 minutes (the basal stimulation), the product under test was administered as an intravenous bolus (I.V.) and the perfusion of the stimulant continued for a further 60 minutes. Acid secretion was recorded continuously as a function of time.
The activity of the product was evaluated as the percentage reduction in the secreted acidity after the administration of the product compared with the base acidity measured during the first 60 minutes of collection during which only the pentagastrin was present.
Different doses of the antagonist compounds tested were administered so that an ID50, that is, the dose (in mg/Kg I.V.) capable of inhibiting the effect of pentagastrin by 50%, could be calculated.
The results thus obtained are illustrated in the following table (Table 1) in which the activities of the compounds are expressed as the ID50s under the stimulus of 30 mcg/Kg/h of pentagastrin.
In the case of `COc1cccc(C(=O)N[C@H](CCC(=O)O)C(=O)N2CCC3(CCCC3)CC2)c1` [Compound C15], the ED50 is reported as 46 mg/kg. `CC(C)c1ccc(C(=O)N[C@H](CCC(=O)O)C(=O)N2CCC3(CCCC3)CC2)cc1` [Compound C18] was tested, and the ED50 was 28 mg/kg. For `CCCN(CCC)C(=O)C(CCC(=O)O)NC(=O)c1ccccc1` (stereo not shown) [Proglumide, proglumide, reference compound], the ED50 was 500 mg/kg. Compound `O=C(O)CC[C@@H](NC(=O)c1cccc(Cl)c1)C(=O)N1CCC2(CC1)OCCO2` [Compound C27] has an ED50 of 81 mg/kg. With `O=C(O)CC[C@@H](NC(=O)c1cccc(Cl)c1)C(=O)NC1CCC2(CCCCC2)CC1` [Compound C22] the ED50 was 55 mg/kg. `O=C(O)CC[C@@H](NC(=O)c1cccc(Cl)c1)C(=O)N1CCC2(CCCCC2)C1` [Compound C4] gave an ED50 of 49 mg/kg. `O=C(O)CC[C@@H](NC(=O)c1cc(Cl)cc(Cl)c1)C(=O)N1CCC2(CCCC2)C1` [Compound C7] gave an ED50 of 60 mg/kg. `Cc1cc(C)cc(C(=O)N[C@H](CCC(=O)O)C(=O)N2CCC3(CCCC3)CC2)c1` [Compound C13] showed an ED50 of 33 mg/kg. With `O=C(O)CC[C@@H](NC(=O)c1cc(Cl)cc(Cl)c1)C(=O)NCCC12CC3CC(CC(C3)C1)C2` [Compound C31] the ED50 was 20 mg/kg. In the case of `O=C(O)CC[C@@H](NC(=O)c1cc(Cl)cc(Cl)c1)C(=O)N1CCC2(CC1)OCCO2` [Compound C28], the ED50 is reported as 70 mg/kg. In the case of `CCc1cccc(C(=O)N[C@H](CCC(=O)O)C(=O)N2CCC3(CCCC3)CC2)c1` [Compound C12], the ED50 is reported as 38 mg/kg. Compound `O=C(O)CC[C@@H](NC(=O)c1cccc(Cl)c1Cl)C(=O)N1CCC2(CCCC2)CC1` [Compound C9] has an ED50 of 40 mg/kg. For `O=C(O)CCC(NC(=O)c1cccc(Cl)c1)C(=O)NC1CCC2CCCCC2C1` (stereo not shown) [Compound D6], the ED50 was 60 mg/kg. `O=C(O)CC[C@@H](NC(=O)c1cccc(C(F)(F)F)c1)C(=O)N1CCC2(CCCC2)CC1` [Compound C17] was tested, and the ED50 was 55 mg/kg. In the case of `O=C(O)CCC(NC(=O)c1cc(Cl)cc(Cl)c1)C(=O)NC1CCC2CCCCC2C1` (stereo not shown) [Compound D7], the ED50 is reported as 48 mg/kg. In the case of `O=C(O)CC[C@@H](NC(=O)c1cccnc1Cl)C(=O)N1CCC2(CCCC2)CC1` [Compound C25], the ED50 is reported as 69 mg/kg. Work on `O=C(O)CCC(NC(=O)c1cccc(Cl)c1)C(=O)N1CCC2(CC1)OCCS2` (stereo not shown) [Compound D3] yielded an ED50 of 67 mg/kg. `O=C(O)CC[C@@H](NC(=O)c1cc2ccccc2[nH]1)C(=O)N1CCC2(CCCC2)CC1` [Compound C26] was tested, and the ED50 was > 75 mg/kg. `N#Cc1cccc(C(=O)N[C@H](CCC(=O)O)C(=O)N2CCC3(CCCC3)CC2)c1` [Compound C16] was tested, and the ED50 was 66 mg/kg. `O=C(O)CC[C@@H](NC(=O)c1ccco1)C(=O)N1CCC2(CCCC2)CC1` [Compound C24] was tested, and the ED50 was > 75 mg/kg. With `Cc1cccc(C(=O)N[C@H](CCC(=O)O)C(=O)N2CCC3(CCCC3)CC2)c1` [Compound C11] the ED50 was 38 mg/kg.

Same assay, conditions: anaesthetised rats, pentagastrin 30 mcg/Kg/h
`O=C(O)CC[C@@H](NC(=O)c1cc(Cl)cc(Cl)c1)C(=O)NCCC12CC3CC(CC(C3)C1)C2` [Compound C31] was tested, and the “Antigastrin activity (in words)” value was “particularly favourable”.
